Tests used:
[1] = test system: root-knot nematodes (Meloidogyne javanica and M. arenaria); test: Egg production by root-knot nematodes on inoculated grapevines after foliar spray; type: in vivo; details: 50 mg/l foliar spray, eggs in 20 ml sub-sample
Description: (§1) Root-knot nematodes (Meloidogyne spp.) are cultured on tobacco or tomato. Root-knot nematode eggs are collected from these plants and hatched for inoculation of the grapevines using the standard method. Nematode eggs are collected from the inoculated grapevines by agitating clean root pieces in 0,8% NaOCl for four minutes. The roots are washed on a bank of three sieves and eggs collected on a 25 μm sieve. The eggs are washed into 100 ml of water and the number of eggs in a 20 ml sub-sample is estimated using a Doncaster dish. Galling is assessed in grapevine roots before egg counts. The roots are assessed with the naked eye for percentage of galls on the roots.
(§2) Uniformly developed rooted hardwood grapevine cuttings, variety Cabernet Sauvignon (Vitis vinifera), are planted into 20 cm diameter pots (one plant per pot) containing a pasteurised potting mix consisting of 50:50 coarse sand and peat. (Prior to pasteurisation, 300 g of fertiliser is added to each 50 liter bin of potting mix. The fertiliser consisted of 1000 g single superphosphate, 200 g ammonium nitrate, 150 g potassium sulphate, 100 g ferrous sulphate, 3000 g dolomite lime and 1500 g lime). The grapevines are grown in a glasshouse at 19-24° C. The plants are watered on alternate days, and fertilised weekly with a water soluble fertiliser. Grapevines are inoculated with 1000 juveniles of a mixed population of root-knot nematodes (Meloidogyne javanica and M. arenaria) 4 weeks after planting. The nematodes are pipetted into two 2cm deep holes at the base of the plant. Grapevine roots are harvested for nematode egg counts 10 weeks after inoculation (described below).
(§3) Acibenzolar-S-methyl (which is benzo(1,2,3)thiadiazole-7-carbothioic acid S-methyl ester, a plant activator from NOVARTIS) is formulated as a 50% water dispersible granule, diluted to 50 mg per liter of spray mixture and sprayed onto the leaves of the grapevines (using a hand-held sprayer) until the point of run-off.
a) cumulative applications: In the first series, acibenzolar-S-methyl is applied to the plants once, twice or three times. The single treatment of acibenzolar-S-methyl is applied one week before inoculation; the double treatment is applied one week before inoculation and at the same time as inoculation; for the third treatment acibenzolar-S-methyl is applied one week before inoculation, at inoculation and one week after inoculation.
(§4) b) single applications: A second series of experiments tested only single applications of acibenzolar-S-methyl either five days before inoculation, at the same time as inoculation or five days after inoculation. Both series of experiments have been completed twice. Water is used as the control treatment in each series.
(§5) The tables indicate the number of eggs produced by Meloidogyne spp in a 20 ml sub-sample, and the percentage galling on roots, resp.

[2] = test system: root-knot nematodes (Meloidogyne javanica and M. arenaria); test: Percentage galling on grapevine roots after foliar spray; type: in vivo; details: 50 mg/l foliar spray
Description: as §1, §2, §3, §4, §5

[3] = test system: grapevines; test: Plant tolerance (phytotoxicity, appearance, fresh weights) of treated grapevines; type: in vivo, Vitis vinifera (Cabernet Sauvignon); details: 50 mg/l foliar spray
Description: as §2, §3

[4] = test system: nematodes; test: Protection of other crops against attack by nematodes; type: in vivo; details: applied on tomatoes, soybean, carrots, potatoes and beet
Source text: Good effects for protecting plants against attack by nematodes are also found by applying acibenzolar-S-methyl on tomatoes, soybean, carrots, potatoes and beet.

[5] = test system: Eggs and juvenile root-knot nematodes; test: Direct effect on eggs and juvenile root-knot nematodes in aqueous solution; parameters: species or system Meloidogyne spp.
Source text: Direct Effect of Acibenzolar-S-methyl onto Nematodes Eggs and juvenile root-knot nematodes are placed into aqueous solutions of acibenzolar-S-methyl (1, 10, 20 and 50 ppm active ingredient). No effect is observed on egg hatching and viability on those eggs and juvenils on penetration of those nematodes into tomato roots and on the number of eggs produced by those nematodes on tomatoes.

[6] = after exposure to aqueous solutions, 1, 10, 20 and 50 ppm active ingredient

CSC(=O)c1cccc2nnsc12 [acibenzolar-S-methyl, benzo(1,2,3)thiadiazole-7-carbothioic acid S-methyl ester]
Number of eggs ([1]; one application (one week before inoculation), first experiment, 10 weeks after inoculation, control 4320): 1520 (8)
Number of eggs ([1]; one application (one week before inoculation), second experiment, control 240): 150 (7)
Number of eggs ([1]; three applications (one week before, at and one week after inoculation), first experiment, control 4320): 1400 (6)
Number of eggs ([1]; three applications (one week before, at and one week after inoculation), second experiment, control 240): 20 (7)
Number of eggs ([1]; two applications (one week before and at inoculation), first experiment, control 4320): 740 (7)
Number of eggs ([1]; two applications (one week before and at inoculation), second experiment, control 240): 100 (7)
Mean percentage galling ([2]; single application at inoculation, first experiment, control 10): 2.3 (8) %
Mean percentage galling ([2]; single application at inoculation, second experiment, control 5): 3 (6) %
Mean percentage galling ([2]; single application five days after inoculation, first experiment, control 10): 1.1 (8) %
Mean percentage galling ([2]; single application five days after inoculation, second experiment, control 5): 4 (8) %
Mean percentage galling ([2]; single application five days before inoculation, first experiment, control 10): 0.6 (8) %
Mean percentage galling ([2]; single application five days before inoculation, second experiment, control 5): 2 (7) %
appearance of grapevines at harvest ([3]; versus water control): no significant differences
phytotoxicity ([3]; grapevines): No phytotoxicity
root fresh weights or fresh weight of the foliage and stems ([3]; grapevines): no difference
protecting plants against attack by nematodes [4]: Good effects
effect on number of eggs produced by the nematodes on tomatoes [5, 6]: No effect
effect on penetration of nematodes into tomato roots [5, 6]: No effect
effect on egg hatching and viability of eggs and juveniles ([5]; aqueous solutions, 1, 10, 20 and 50 ppm active ingredient): No effect

Source: patent US6403621B1, “Method for protecting plants” (Syngenta Crop Protection, Inc., priority 1997, dated 2002)
